The values that follow come from the Kinase Knowledgebase extract (Sharma et al. 2016).

One assay concerns the target PIK3CB (Human) (UniProt P42338).
A further assay concerns the target PIK3CA (human) (UniProt P42336).

PIK3CB (Human), sequence (P42338 whole entry, looked up): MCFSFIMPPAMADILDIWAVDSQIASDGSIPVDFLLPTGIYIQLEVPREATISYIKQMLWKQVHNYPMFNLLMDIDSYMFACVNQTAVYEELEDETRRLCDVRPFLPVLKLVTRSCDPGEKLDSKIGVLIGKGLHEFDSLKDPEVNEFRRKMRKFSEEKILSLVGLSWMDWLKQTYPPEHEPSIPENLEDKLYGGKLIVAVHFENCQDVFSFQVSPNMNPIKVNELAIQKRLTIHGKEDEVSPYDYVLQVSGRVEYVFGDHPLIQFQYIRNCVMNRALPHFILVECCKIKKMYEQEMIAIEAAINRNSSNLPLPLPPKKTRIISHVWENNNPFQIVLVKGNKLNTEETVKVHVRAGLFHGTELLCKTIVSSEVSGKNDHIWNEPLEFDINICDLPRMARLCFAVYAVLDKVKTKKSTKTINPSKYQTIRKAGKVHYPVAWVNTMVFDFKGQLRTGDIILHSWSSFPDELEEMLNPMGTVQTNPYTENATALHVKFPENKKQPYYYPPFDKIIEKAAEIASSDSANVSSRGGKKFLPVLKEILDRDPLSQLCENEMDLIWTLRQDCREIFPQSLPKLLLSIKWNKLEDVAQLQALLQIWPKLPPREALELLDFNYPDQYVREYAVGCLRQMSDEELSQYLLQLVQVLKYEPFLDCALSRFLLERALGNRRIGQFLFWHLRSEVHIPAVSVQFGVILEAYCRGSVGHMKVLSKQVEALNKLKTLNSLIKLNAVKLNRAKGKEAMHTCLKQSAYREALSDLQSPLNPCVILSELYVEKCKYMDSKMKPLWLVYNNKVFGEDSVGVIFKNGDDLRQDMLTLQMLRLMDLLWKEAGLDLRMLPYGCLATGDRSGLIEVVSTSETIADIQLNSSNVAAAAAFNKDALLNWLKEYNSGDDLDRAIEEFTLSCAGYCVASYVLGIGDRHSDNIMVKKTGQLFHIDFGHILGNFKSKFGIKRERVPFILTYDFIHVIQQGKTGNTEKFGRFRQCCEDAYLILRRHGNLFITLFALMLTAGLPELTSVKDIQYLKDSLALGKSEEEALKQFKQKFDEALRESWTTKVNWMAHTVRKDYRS
PIK3CA (human), sequence (P42336 whole entry, looked up): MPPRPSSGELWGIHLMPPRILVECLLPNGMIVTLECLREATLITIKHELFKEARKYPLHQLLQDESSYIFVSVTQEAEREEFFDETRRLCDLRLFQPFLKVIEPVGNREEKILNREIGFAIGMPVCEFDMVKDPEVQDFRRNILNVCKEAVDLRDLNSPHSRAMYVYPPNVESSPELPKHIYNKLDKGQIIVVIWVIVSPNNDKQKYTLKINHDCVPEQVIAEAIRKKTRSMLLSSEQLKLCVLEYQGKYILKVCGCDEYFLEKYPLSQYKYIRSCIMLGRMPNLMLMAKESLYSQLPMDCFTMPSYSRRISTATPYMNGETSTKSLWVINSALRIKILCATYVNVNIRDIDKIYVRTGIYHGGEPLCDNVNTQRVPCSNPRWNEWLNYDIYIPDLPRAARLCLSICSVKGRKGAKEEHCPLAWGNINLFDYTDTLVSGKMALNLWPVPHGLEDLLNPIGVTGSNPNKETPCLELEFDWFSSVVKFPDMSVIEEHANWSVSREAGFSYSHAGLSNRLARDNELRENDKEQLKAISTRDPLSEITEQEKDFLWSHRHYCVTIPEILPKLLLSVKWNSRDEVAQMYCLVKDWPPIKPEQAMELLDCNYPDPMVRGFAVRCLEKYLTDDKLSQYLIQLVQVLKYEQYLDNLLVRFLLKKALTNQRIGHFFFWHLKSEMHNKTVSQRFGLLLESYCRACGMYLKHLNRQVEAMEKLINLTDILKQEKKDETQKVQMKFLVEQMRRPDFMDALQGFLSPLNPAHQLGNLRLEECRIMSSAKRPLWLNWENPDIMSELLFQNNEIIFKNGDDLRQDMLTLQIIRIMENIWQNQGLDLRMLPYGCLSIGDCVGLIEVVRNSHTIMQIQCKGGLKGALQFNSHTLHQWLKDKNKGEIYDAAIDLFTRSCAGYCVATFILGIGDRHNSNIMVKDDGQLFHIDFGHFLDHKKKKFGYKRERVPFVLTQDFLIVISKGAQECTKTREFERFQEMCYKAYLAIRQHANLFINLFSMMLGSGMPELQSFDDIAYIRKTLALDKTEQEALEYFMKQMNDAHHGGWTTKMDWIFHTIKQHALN

Turning to `Cc1ccc(S(=O)(=O)NCC(C)(C)O)cc1-c1cnc(N)c(-c2cnc(C3CC3)o2)c1`, the figures for the half-inhibitory concentration (IC50) at PIK3CB (Human) and against PIK3CA (human) were 1300 nM and 280 nM, respectively.

For orientation: IC50 means the concentration needed to halve the response being measured.
